Data reported in patent publication US8563559B2 (Rigel Pharmaceuticals, Inc., priority 2006, dated 2013).
pIC50: −log10 of the molar value.

Biological target: T1, Axl (Homo sapiens, UniProt P30530)
T1 construct: endogenous in cells; host or cells: HeLa
T1 sequence (P30530 26-894): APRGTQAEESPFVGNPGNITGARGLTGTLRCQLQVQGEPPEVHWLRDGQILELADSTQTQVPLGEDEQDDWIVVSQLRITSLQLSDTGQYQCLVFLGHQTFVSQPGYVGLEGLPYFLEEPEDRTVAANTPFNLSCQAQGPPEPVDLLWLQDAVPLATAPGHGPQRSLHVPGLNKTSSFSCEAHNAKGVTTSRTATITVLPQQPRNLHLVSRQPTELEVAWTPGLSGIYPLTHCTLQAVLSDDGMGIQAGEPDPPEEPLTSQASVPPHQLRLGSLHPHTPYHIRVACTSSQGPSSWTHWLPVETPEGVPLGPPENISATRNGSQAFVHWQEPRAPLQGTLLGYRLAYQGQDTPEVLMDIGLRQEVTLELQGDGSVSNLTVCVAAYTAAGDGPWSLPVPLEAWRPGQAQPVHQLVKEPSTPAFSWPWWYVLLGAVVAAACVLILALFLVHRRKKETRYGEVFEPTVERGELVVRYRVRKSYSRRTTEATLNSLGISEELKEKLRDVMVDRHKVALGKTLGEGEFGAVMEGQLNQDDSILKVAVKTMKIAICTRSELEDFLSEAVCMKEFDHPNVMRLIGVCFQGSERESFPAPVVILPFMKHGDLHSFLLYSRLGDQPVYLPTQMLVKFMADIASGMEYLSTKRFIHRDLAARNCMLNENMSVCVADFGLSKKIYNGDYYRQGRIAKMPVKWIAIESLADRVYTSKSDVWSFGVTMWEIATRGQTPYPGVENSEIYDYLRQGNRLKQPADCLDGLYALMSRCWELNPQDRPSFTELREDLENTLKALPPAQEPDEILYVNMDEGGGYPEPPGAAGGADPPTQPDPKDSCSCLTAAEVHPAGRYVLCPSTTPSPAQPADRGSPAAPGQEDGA
Assay: Phospho-AKT in-cell Western assay (inhibition of Axl activity)
Type: cell-based
Conditions: Table 1, formula (Ia); Hela cells, Axl antibody cross-linking stimulation, phospho-Akt chemiluminescence normalized to relative cell number
Description: The compounds of the invention were tested in the following assay for their ability to inhibit Axl activity.
Phospho-AKT in-Cell Western Assay
• Cell culture plate: 96 well assay plate (Corning 3610), white, clear bottom, tissue-culture treated. • Cells: Hela cells. • Starvation medium: For Axl stimulation: 0.5% FCS (fetal calf serum) in DMEM, plus Axl/Fc (extracellular domain of AXL fused to immunoglobulin Fc region) (R&D, 154-AL) 500 ng/mL. • For EGF (epidermal growth factor) stimulation: 0.5% FCS in DMEM (Dulbecco's modified Eagles medium). • Poly-L-Lysine 0.01% solution (the working solution): 10 μg/ml, dilute In PBS (phosphate buffered saline). • Axl antibody cross-linking: • 1st: Mouse anti-Axl (R&D, MAB154). • 2nd: Biotin-SP-conjugated AffiniPure goat anti-mouse IgG (H+L) (Jackson ImmunoResearch #115-065-003). • Fixing buffer: 4% formaldehyde in PBS. • Wash buffer: 0.1% TritonX-100 in PBS. • Quenching buffer: 3% H2O2, 0.1% Azide in wash buffer, Azide and hydrogen peroxide 1(H2O2) are added fresh. • Blocking buffer: 5% BSA in TBST (tris buffered saline plus 0.1% Tween 20). • Primary antibody: Rabbit anti-human Phospho-Akt antibody (Cell Signaling 9271): 1×250 diluted in blocking buffer. • Secondary antibody: HRP (horse radish peroxidase)-conjugated Goat anti-Rabbit secondary, stock solution: Jackson ImmunoResearch (Goat anti-Rabbit HRP, #111-035-144) 1:1 diluted in glycerol, store at −20° C. The working solution: 1×2000 dilution of stock in blocking buffer. • Chemiluminescent working solution (Pierce, 37030): SuperSignal ELISA (enzyme linked immunosorbant assay) Pico Chemiluminescent substrate. • Crystal Violet solution: Stock: 2.5% Crystal violet in methanol, filtered and kept at ambient temperature. The working solution: dilute the stock 1:20 with PBS immediately before use. • 10% SDS: working solution: 5% SDS (sodium dodecylsulfate), diluted in PBS Methods: Day 1:
A 96 well TC (tissue culture treated) plate was coated with 10 μg/mL poly-L-Lysine at 37° C. for 30 min, washed twice with PBS, and air-dried for 5 minutes before cells were added. Hela cells were seeded at 10,000 cells/well and the cells were starved in 100 μL starvation medium containing Axl/Fc for 24 hrs.
The cells were pre-treated with test compounds by adding 100 μL of 2× test compound to the starvation medium on the cells. The cells were incubated at 37° C. for 1 hr before stimulation.
The cells were stimulated by Axl-antibody cross-linking as follows: A 5×1st/2nd Axl antibody mixture was made (37.5 μg/mL 1st/100 μg/mL 2nd) in starvation medium and nutated at 4° C. with thorough mixing for 1-2 hours for clustering. The resulting mix was warmed to 37° C. 50 μL of 5×Axl 1st/2nd of antibody cluster was added to the cells and the cells were incubated at 37° C. for 5 min.
After 5 minutes stimulation, the plate was flicked to remove medium and the plate was tapped onto paper towels. Formaldehyde (4.0% in PBS, 100 μL) was added to fix the cells and the cells were incubated at ambient temperature for 20 min without shaking.
The cells were washed with a plate washer buffer to remove the formaldehyde solution. The plate was flicked to removed excess wash buffer and tapped onto paper towels. Quenching buffer (100 μL) was added to each well and the cells were incubated at ambient temperature for 20 minutes without shaking.
The cells were washed with a plate washer buffer to remove the quenching buffer. Blocking buffer (100 μL) was added and the cells were incubated at ambient temperature for at least an hour with gentle shaking.
The cells were washed with a plate washer buffer and diluted primary antibody (50 μL) was added to each well (blocking buffer was added to the negative control wells instead). The plates were incubated overnight at 4° C. with gentle shaking.
The wash buffer was removed, diluted secondary antibody (100 μL) was added, and the cells were incubated at ambient temperature for 1 hour with gentle shaking. […]

Row | pIC50 | SMILES
1 | < 4.70 | CNC(=O)[C@H]1C[C@H]2C[C@H](C2(C)C)[C@@]1(C)Nc1nc(Nc2ccc(N3CCN(S(C)(=O)=O)CC3)c(C(F)(F)F)c2)ncc1F [Compound 37, (1R,2R,3S,5R)-2-(5-fluoro-2-(3-trifluoromethyl-4-(4-methylsulfonylpiperazin-1-yl)phenylamino)pyrimidin-4-ylamino)-N,2,6,6-tetramethylbicyclo[3.1.1]heptane-3-carboxamide]
2 | 5.00 to 6.00 | CNC(=O)[C@H]1C[C@H]2C[C@H](C2(C)C)[C@@]1(C)Nc1nc(Nc2ccc(N3CCN(C(C)=O)CC3)c(Cl)c2)ncc1F [Compound 38, (1R,2R,3S,5R)-2-(5-fluoro-2-(3-chloro-4-(4-acetylpiperazin-1-yl)phenylamino)pyrimidin-4-ylamino)-N,2,6,6-tetramethylbicyclo[3.1.1]heptane-3-carboxamide]
3 | < 4.70 | CNC(=O)[C@H]1C[C@H]2C[C@H](C2(C)C)[C@@]1(C)Nc1nc(Nc2ccc(N3CCN(C(C)=O)CC3)c(C(F)(F)F)c2)ncc1F [Compound 39, (1R,2R,3S,5R)-2-(5-fluoro-2-(3-trifluoromethyl-4-(4-acetylpiperazin-1-yl)phenylamino)pyrimidin-4-ylamino)-N,2,6,6-tetramethylbicyclo[3.1.1]heptane-3-carboxamide]
4 | 5.00 to 6.00 | CNC(=O)[C@H]1C[C@H]2C[C@H](C2(C)C)[C@@]1(C)Nc1nc(Nc2ccc(OCCN3CCCC3)cc2)ncc1F [Compound 40, (1R,2R,3S,5R)-2-(5-fluoro-2-(4-(2-(pyrrolidin-1-yl)ethoxy)phenylamino)pyrimidin-4-ylamino)-N,2,6,6-tetramethylbicyclo[3.1.1]heptane-3-carboxamide]
5 | > 6.00 | CNC(=O)[C@H]1C[C@H]2C[C@H](C2(C)C)[C@@]1(C)Nc1nc(Nc2ccc(N3CCN(CCO)CC3)cc2)ncc1Cl [Compound 41, (1R,2R,3S,5R)-2-(5-chloro-2-(4-(4-(2-hydroxyethyl)piperazin-1-yl)phenylamino)pyrimidin-4-ylamino)-N,2,6,6-tetramethylbicyclo[3.1.1]heptane-3-carboxamide]
6 | 5.00 to 6.00 | CNC(=O)[C@H]1C[C@H]2C[C@H](C2(C)C)[C@@]1(C)Nc1nc(Nc2ccc(N3CCN(CCO)CC3)cc2)ncc1C [Compound 42, (1R,2R,3S,5R)-2-(5-methyl-2-(4-(4-(2-hydroxyethyl)piperazin-1-yl)phenylamino)pyrimidin-4-ylamino)-N,2,6,6-tetramethylbicyclo[3.1.1]heptane-3-carboxamide]
7 | > 6.00 | CNC(=O)[C@H]1C[C@H]2C[C@H](C2(C)C)[C@@]1(C)Nc1nc(Nc2ccc(N3CCN(C)CC3)c(F)c2)ncc1C [Compound 43, (1R,2R,3S,5R)-2-(5-methyl-2-(3-fluoro-4-(4-methylpiperazin-1-yl)phenylamino)pyrimidin-4-ylamino)-N,2,6,6-tetramethylbicyclo[3.1.1]heptane-3-carboxamide]
8 | 5.00 to 6.00 | CNC(=O)[C@H]1C[C@H]2C[C@H](C2(C)C)[C@@]1(C)Nc1nc(Nc2ccc(N3CCC(F)(F)CC3)c(F)c2)ncc1C [Compound 44, (1R,2R,3S,5R)-2-(5-methyl-2-(3-fluoro-4-(4,4-difluoropiperidin-1-yl)phenylamino)pyrimidin-4-ylamino)-N,2,6,6-tetramethylbicyclo[3.1.1]heptane-3-carboxamide]

Same assay, conditions: Table 3, formula (Ic); Hela cells, Axl antibody cross-linking stimulation, phospho-Akt chemiluminescence normalized to relative cell number

Row | pIC50 | SMILES
9 | > 6.00 | CCN(CC)CCN1CCOc2cc(Nc3ncc(Cl)c(N[C@@]4(C)[C@@H](C(=O)NC)C[C@H]5C[C@@H]4C5(C)C)n3)ccc21 [Compound 45, (1R,2R,3S,5R)-2-(5-chloro-2-((3,4-dihydro-4-(2-(diethylamino)ethyl)-2H-benzo[b][1,4]oxazin-7-yl)amino)pyrimidin-4-ylamino)-N,2,6,6-tetramethylbicyclo[3.1.1]heptane-3-carboxamide]
10 | > 6.00 | CCN(CC)CCN1CCOc2cc(Nc3ncc(F)c(N[C@@]4(C)[C@@H](C(=O)NC)C[C@H]5C[C@@H]4C5(C)C)n3)ccc21 [Compound 46, (1R,2R,3S,5R)-2-(5-fluoro-2-((3,4-dihydro-4-(2-(diethylamino)ethyl)-2H-benzo[b][1,4]oxazin-7-yl)amino)pyrimidin-4-ylamino)-N,2,6,6-tetramethylbicyclo[3.1.1]heptane-3-carboxamide]
11 | > 6.00 | CNC(=O)[C@H]1C[C@H]2C[C@H](C2(C)C)[C@@]1(C)Nc1nc(Nc2ccc3c(c2)OCCN3CCN(C)C)ncc1Cl [Compound 47, (1R,2R,3S,5R)-2-(5-chloro-2-((3,4-dihydro-4-(2-(dimethylamino)ethyl)-2H-benzo[b][1,4]oxazin-7-yl)amino)pyrimidin-4-ylamino)-N,2,6,6-tetramethylbicyclo[3.1.1]heptane-3-carboxamide]
12 | 5.00 to 6.00 | CNC(=O)[C@H]1C[C@H]2C[C@H](C2(C)C)[C@@]1(C)Nc1nc(Nc2ccc3c(c2)OCCN3CCN(C)C)ncc1F [Compound 48, (1R,2R,3S,5R)-2-(5-fluoro-2-((3,4-dihydro-4-(2-(dimethylamino)ethyl)-2H-benzo[b][1,4]oxazin-7-yl)amino)pyrimidin-4-ylamino)-N,2,6,6-tetramethylbicyclo[3.1.1]heptane-3-carboxamide]
13 | 5.00 to 6.00 | CNC(=O)[C@H]1C[C@H]2C[C@H](C2(C)C)[C@@]1(C)Nc1nc(Nc2ccc3c(c2)OCCN3CCN(C)C)ncc1C [Compound 49, (1R,2R,3S,5R)-2-(5-methyl-2-((3,4-dihydro-4-(2-(dimethylamino)ethyl)-2H-benzo[b][1,4]oxazin-7-yl)amino)pyrimidin-4-ylamino)-N,2,6,6-tetramethylbicyclo[3.1.1]heptane-3-carboxamide]
14 | 5.00 to 6.00 | CNC(=O)[C@H]1C[C@H]2C[C@H](C2(C)C)[C@@]1(C)Nc1nc(Nc2ccc3c(c2)N(CCN(C)C)CCO3)ncc1Cl [Compound 50, (1R,2R,3S,5R)-2-(5-chloro-2-((3,4-dihydro-4-(2-(dimethylamino)ethyl)-2H-benzo[b][1,4]oxazin-6-yl)amino)pyrimidin-4-ylamino)-N,2,6,6-tetramethylbicyclo[3.1.1]heptane-3-carboxamide]
